Experimental data taken from PMC6968685 (Journal of Enzyme Inhibition and Medicinal Chemistry, 2020).

Key:
[1] = tested on: P. falciparum CQ-resistant strain W2; assay: In vitro antiplasmodial activity, SYBR Green I fluorescence-based method, strain W2; assay type: cell-based; settings: Plasmodium falciparum; chloroquine-resistant strain W2; 48 h incubation; read-out: P. falciparum strains IC50 values, W2
How it was run: (§1)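 P. falciparum 3D7 and W2 cultured in human erythrocytes in RPMI with 0.5% Albumax I at 37 °C, exposed 48 h to compounds tested […]. Parasite DNA read by SYBR Green I fluorescence (ex 485/em 535 nm); IC50 by non-linear regression, mean of three independent experiments.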

[2] = tested on: P. falciparum CQ-sensitive strain 3D7; assay: In vitro antiplasmodial activity, SYBR Green I fluorescence-based method, strain 3D7; assay type: cell-based; settings: Plasmodium falciparum; chloroquine-sensitive strain 3D7; 48 h incubation; read-out: P. falciparum strains IC50 values, 3D7
How it was run: as §1

[3] = tested on: L. donovani (MHOM/IN/00/DEVI) promastigotes; assay: In vitro antileishmanial activity, MTT assay on promastigotes; assay type: cell-based; settings: Leishmania donovani, 72 h incubation, ≥10 = no activity noted at the highest concentration tested
How it was run: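 Log-phase L. donovani MHOM/IN/00/DEVI promastigotes (10^6/ml, Schneider's + 20% FCS) were exposed to graded compound concentrations (DMSO <0.5% v/v) for 72 h at 27 °C, in duplicate. Growth measured by MTT reduction (4 h, A570 nm); IC50 obtained by regression.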

[4] = tested on: T. brucei brucei AnTat 1.9; assay: In vitro antitrypanosomal activity, Alamar Blue assay; assay type: cell-based; settings: Trypanosoma brucei; slender bloodstream trypomastigotes, AnTat 1.9 strain; read-out: Trypanosoma brucei brucei IC50 values, Trypanos Antat 1.9
How it was run: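 Bloodstream parasites (2000/well) in supplemented MEM with 20% horse serum exposed to compound in duplicate for 69 h at 37 °C, then Alamar Blue added for 5 h; fluorescence read at ex 530/em 590 nm. IC50 by nonlinear regression, from three independent experiments.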

[5] = Cytotoxicity evaluation, MTT; assay type: cell-based, human; settings: human
How it was run: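 HepG2 hepatocarcinoma cells exposed to compound in duplicate, then viability measured by MTT reduction (0.5 mg/ml), formazan dissolved in DMSO and read at 570 nm against 630 nm. Viability expressed as percent of untreated cells; CC50 taken from dose-response curve, doxorubicin as positive control.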

[6] = tested on: Plasmodium telomeric sequence FPf1T G-quadruplex; assay: FRET melting experiments, FPf1T; assay type: binding, P. falciparum; settings: 2 μM compound, 0.2 μM oligonucleotide, K+ conditions
Method: (§2) These were performed with dual-labelled oligonucleotides mimicking the Plasmodium telomeric sequences FPf1T [FAM-5′(GGGTTTA)3-GGG3′-TAMRA] and FPf8T [FAM-5′ (GGGTTCA)3GGG3′-TAMRA], the Trypanosoma 9 and 11 chromosomic sequence FTrypBT (also named FEBR1T) [FAM-5′[…]3′-TAMRA], the human telomeric sequence F21T [FAM-(GGGTTA)3-GGG3′-TAMRA], and the human duplex sequence FdxT [FAM5′-[…]-hexaethyleneglycol-[…]3′-TAMRA][51]^,[52]. The oligonucleotides were pre-folded in 10 mM lithium cacodylate buffer (pH 7.2), with 10 mM KCl and 90 mM LiCl (K^+condition). The FAM emissions were recorded at 516 nm using a 492-nm excitation wavelength in the absence and presence of a single compound as a function of temperature (25–95 °C) in 96-well microplates by using a Stratagene MX3000P real-time PCR device at a rate of 1 °C·min^−1. Data were normalised between 0 and 1, and the required temperature for half-denaturation of oligonucleotides corresponding to the emission value of 0.5 was taken as the Tm. […] For each compound, three independent experiments were carried out.

[7] = tested on: Plasmodium telomeric sequence FPf8T G-quadruplex; assay: FRET melting experiments, FPf8T; assay type: binding, P. falciparum; settings: 2 μM compound, 0.2 μM oligonucleotide, K+ conditions
Method: as §2

[8] = tested on: Trypanosoma 9 and 11 chromosomic sequence FTrypBT (FEBR1T) G-quadruplex; assay: FRET melting experiments, FtrypBT; assay type: binding, T. brucei brucei; settings: 2 μM compound, 0.2 μM oligonucleotide, K+ conditions
Method: as §2

[9] = tested on: human telomeric sequence F21T G-quadruplex; assay: FRET melting experiments, F21T; assay type: binding; settings: 2 μM compound, 0.2 μM oligonucleotide, K+ conditions
Method: as §2

[10] = tested on: human duplex sequence FdxT; assay: FRET melting experiments, FdxT duplex control; assay type: binding; settings: 2 μM compound, 0.2 μM oligonucleotide, K+ conditions
Method: as §2

[11] = tested on: F21T (DNA, G4) GGGTTAGGGTTAGGGTTAGGG; assay: FRET melting; settings: 10 mM K+, 90 mM Li+; 10 mM lithium cacodylate pH 7.2; 2 µM compound, 0.2 µM oligonucleotide
[12] = tested on: FPf1T (DNA, G4) GGGTTTAGGGTTTAGGGTTTAGGG; assay: FRET melting; settings: 10 mM K+, 90 mM Li+; 10 mM lithium cacodylate pH 7.2; 2 µM compound, 0.2 µM oligonucleotide

SMILES | IC50 [1] [µM] | IC50 [2] [µM] | IC50 [3] [µM] | IC50 [4] [µM] | CC50 at 72 h [5] [µM] | ΔTm FPf1T [6] [°C] | ΔTm FPf8T [7] [°C] | ΔTm FtrypBT [8] [°C] | ΔTm F21T [9] [°C] | ΔTm FdxT [10] [°C] | ΔTm [11] [°C] | ΔTm [12] [°C]
CN1CCN(CCCNCc2ccc(-c3cc(-c4ccc(CNCCCN5CCN(C)CC5)cc4)c4ccccc4n3)cc2)CC1 [Compound 1e, 2,4-Bis{4-[(3–(4-methylpiperazin-1-yl)propyl)aminomethyl]phenyl}quinoline] | 1.29 ± 0.063 | 0.47 ± 0.06 | ≥ 10 | 1.78 ± 0.089 | 11.3 ± 0.5 | 9.4 ± 0.6 | 9.2 ± 0.5 | 7.4 ± 0.1 | 11.3 ± 1.1 | 0.1 ± 0.1 |  | 
COc1ccc2nc(-c3ccc(CNCCCCN(C)C)cc3)nc(-c3ccc(CNCCCCN(C)C)cc3)c2c1 [Compound 3h, 6-Methoxy-2,4-bis{4-[(4-dimethylaminobutyl)aminomethyl]phenyl}quinazoline] | 3.68 ± 0.5 | 3.84 ± 0.38 | ≥ 10 | 0.27 ± 0.035 | 11.7 ± 1.2 | 19.8 ± 0.6 | 18.8 ± 0.7 | 15.7 ± 0.3 | 16.4 ± 1.3 | 2.0 ± 0.2 |  | 
CN1CCN(CCNCc2ccc(-c3cc(-c4ccc(CNCCN5CCN(C)CC5)cc4)c4ccccc4n3)cc2)CC1 [Compound 1f, 2,4-Bis{4-[(2–(4-methylpiperazin-1-yl)ethyl)aminomethyl]phenyl}quinoline] | 0.13 ± 0.024 | 2.42 ± 0.27 | ≥ 10 | 0.99 ± 0.132 | 4.09 ± 0.3 | 10.7 ± 1.0 | 11.0 ± 0.5 | 9.4 ± 0.6 | 9.5 ± 2.9 | −0.1 ± 0.2 |  | 
COc1ccc2c(-c3ccc(CNCCCCN(C)C)cc3)nc(-c3ccc(CNCCCCN(C)C)cc3)cc2c1 [Compound 2i, 6-Methoxy-1,3-bis{4-[(4-dimethylaminobutyl)aminomethyl]phenyl}isoquinoline] | 2.4 ± 0.49 | 8.46 ± 0.66 | ≥ 10 | 0.64 ± 0.323 | 10.8 ± 0.8 | 12.8 ± 1.3 | 12.9 ± 1.0 | 8.4 ± 0.3 | 23.2 ± 0.6 | 0.9 ± 0.1 |  | 
CN(C)CCCNCc1ccc(-c2cc3ccccc3c(-c3ccc(CNCCCN(C)C)cc3)n2)cc1 [Compound 2b, 1,3-Bis{4-[(3-dimethylaminopropyl)aminomethyl]phenyl}isoquinoline] | 3.02 ± 0.25 | 1.82 ± 0.31 | ≥ 10 | 0.35 ± 0.049 | 3.47 ± 0.3 | 13.6 ± 1.3 | 13.0 ± 1.1 | 11.7 ± 0.6 | 12.7 ± 0.3 | 0.3 ± 0.2 |  | 
COc1ccc2c(-c3ccc(CNCCCN(C)C)cc3)nc(-c3ccc(CNCCCN(C)C)cc3)cc2c1 [Compound 2j, 6-Methoxy-1,3-bis{4-[(3-dimethylaminopropyl)aminomethyl]phenyl}isoquinoline] | 5.09 ± 0.76 | 7.21 ± 0.59 | ≥ 10 | 0.59 ± 0.131 | 2.16 ± 0.2 | 15.3 ± 0.7 | 15.0 ± 0.6 | 12.2 ± 1.1 | 13.9 ± 0.1 | 0.5 ± 0.3 |  | 
COc1ccc2nc(-c3ccc(CNCCCN(C)C)cc3)nc(-c3ccc(CNCCCN(C)C)cc3)c2c1 [Compound 3i, 6-Methoxy-2,4-bis{4-[(3-dimethylaminopropyl)aminomethyl]phenyl}quinazoline] | 4.34 ± 0.74 | 4.05 ± 0.95 | ≥ 10 | 0.44 ± 0.084 | 1.93 ± 0.1 | 16.0 ± 0.3 | 15.6 ± 0.3 | 12.7 ± 0.7 | 12.6 ± 0.0 | 0.3 ± 0.3 |  | 
COc1ccc2c(-c3ccc(CNCCCCN(C)C)cc3)nc(-c3ccc(CNCCCCN(C)C)cc3)nc2c1 [Compound 3m, 7-Methoxy-2,4-bis{4-[(4-dimethylaminobutyl)aminomethyl]phenyl}quinazoline] | 4.22 ± 0.55 | 1.18 ± 0.43 | ≥ 10 | 0.75 ± 0.06 | 25.1 ± 1.2 | 18.3 ± 0.7 | 17.8 ± 0.5 | 13.8 ± 0.5 | 19.4 ± 0.4 | 1.7 ± 0.3 |  | 
COc1ccc2cc(-c3ccc(CNCCCN(C)C)cc3)nc(-c3ccc(CNCCCN(C)C)cc3)c2c1 [Compound 2f, 7-Methoxy-1,3-bis{4-[(3-dimethylaminopropyl)aminomethyl]phenyl}isoquinoline] | 4.76 ± 0.66 | 1.47 ± 0.24 | ≥ 10 | 0.52 ± 0.072 | 2.12 ± 0.2 | 20.3 ± 1.1 | 18.5 ± 0.5 | 16.9 ± 1.1 | 15.8 ± 0.1 | 0.8 ± 0.3 |  | 
CN(C)CCCNCc1ccc(-c2cc(-c3ccc(CNCCCN(C)C)cc3)c3ccccc3n2)cc1 [Compound 1b, 2,4-Bis{4-[(3-dimethylaminopropyl)aminomethyl]phenyl}quinoline] | 0.88 ± 0.14 | 0.47 ± 0.06 | ≥ 10 | 0.82 ± 0.022 | 4.09 ± 0.2 | 8.4 ± 1.0 | 9.9 ± 0.1 | 7.8 ± 1.2 | 12.7 ± 0.6 | 0.0 ± 0.7 |  | 
COc1ccc2c(-c3ccc(CNCCCCN(C)C)cc3)nc(-c3ccc(CNCCCCN(C)C)cc3)cc2c1 |  |  |  |  |  |  |  |  |  |  | 23.2 ± 0.6 | 
COc1ccc2cc(-c3ccc(CNCCCCN(C)C)cc3)nc(-c3ccc(CNCCCCN(C)C)cc3)c2c1 [Compound 2e, 7-Methoxy-1,3-bis{4-[(4-dimethylaminobutyl)aminomethyl]phenyl}isoquinoline] | 6.06 ± 0.64 | 4.41 ± 0.51 | ≥ 10 | 0.55 ± 0.122 | 9.57 ± 1 | 27.3 ± 1.1 | 26.6 ± 0.2 | 24.0 ± 0.3 | 22.2 ± 0.1 | 4.1 ± 0.3 |  | 
COc1ccc2nc(-c3ccc(CNCCN(C)C)cc3)nc(-c3ccc(CNCCN(C)C)cc3)c2c1 [Compound 3j, 6-Methoxy-2,4-bis{4-[(2-dimethylaminoethyl)aminomethyl]phenyl}quinazoline] | 1.23 ± 0.15 | 0.56 ± 0.02 | ≥ 10 | 1.04 ± 0.085 | 3.12 ± 0.2 | 3.4 ± 0.4 | 3.1 ± 0.4 | 4.4 ± 0.5 | 7.2 ± 0.4 | −0.4 ± 0.2 |  | 
COc1ccc2nc(-c3ccc(CNCCCCN(C)C)cc3)nc(-c3ccc(CNCCCCN(C)C)cc3)c2c1 |  |  |  |  |  |  |  |  |  |  |  | 19.8 ± 0.6
CN(C)CCNCc1ccc(-c2cc(-c3ccc(CNCCN(C)C)cc3)c3ccccc3n2)cc1 [Compound 1c, 2,4-Bis{4-[(2-dimethylaminoethyl)aminomethyl]phenyl}quinoline] | 0.34 ± 0.037 | 0.032 ± 0.004 | ≥ 10 | 1.48 ± 0.085 | 3.1 ± 0.9 | 2.3 ± 0.7 | 2.7 ± 0.2 | 2.6 ± 0.4 | 2.8 ± 1.3 | −0.5 ± 0.4 |  | 
